Test results from US7514240B2, “EGR-EGFR complex” (Japan Science and Technology Agency, priority 2002, dated 2009).

Key:
EGFR (A431 cell) = biological target: T1, EGFR (A431 cell) (Homo sapiens, UniProt P00533); experiment: EGF-EGFR binding inhibition assay (Eu-EGF, A431 cells, DELFIA time-resolved fluorescence); settings: Eu-EGF 5 nmol/L, compounds at 1, 3, 10 and 30 μg/mL, nonlinear least square fitting
T1 construct: host or cells: A431 cells
Experimental: A431 cells (human squamous cell carcinoma cells, purchased from ATCC) for use in this experiment were subcultured using a medium (hereinafter denoted as a medium) prepared by adding inactivated FBS (JRH), Penicillin-streptmycin (GIBCO), and Amphotelicin B (Sigma) at final concentrations of 10 vol %, 50 U/mL-50 μg/mL, and 1 μg/mL, respectively, to DMEM (Sigma). A431 cells suspended in the medium were inoculated into a 96-well microtiter plate (black, COSTAR) at 10,000 cells/100 μL/well, and then pre-cultured overnight in a CO2 incubator (37° C., 5% CO2). After the media within the wells had been completely removed, the wells were washed once in 50 mmol/L HEPES-HCl (pH 7.8, hereinafter denoted as a Buffer) containing 138 mmol/L NaCl, 5 mmol/L KCl, 1.2 mmol/L MgSO4, 1.2 mmol/L CaCl2, 75 μmol/L EDTA and 0.2 vol % BSA, and then a Buffer was added at 49 μL/well. Subsequently, DMSO was added at 1 μL/well, and then Eu-EGF that had been diluted with a Buffer at various concentrations were added at 50 μL/well. The plate was incubated at room temperature for 1 hour, washed 5 times with an ice-cold buffer (200 μL/well), and then a DELFIA enhancement reagent (PerkinElmer life sciences) was added at 100 μL/well. After further 30 minutes of incubation at room temperature, time-resolved fluorescence was measured using a plate reader (ARVO-sx, PerkinElmer life sciences). Excitation wavelength and emission wavelength used herein were 340 nm and 615 nm, respectively.
A value of specific binding was calculated by subtracting a measured value of non-specific binding from a value measured at each ligand concentration. […]
A representative compounds for site 1 of 2) in Example 6, a representative compounds for site 2 of 2) in Example 6, and a representative compounds for site 3 of 1) in Example 6 were subjected to this assay. […] After 30 minutes of incubation at room temperature, time-resolved fluorescence was measured using a plate reader (ARVO-sx, PerkinElmer life sciences). […] Assay was run in duplicate, and then data were processed using each average measured value. […]

[1] = biological target: T2, EGF receptor of A431 cells (Homo sapiens, UniProt P00533); experiment: EGFR antagonist activity using EGFR phosphorylation as an index (western blotting); type: cell-based; settings: EGF 100 ng/mL
T2 construct: endogenous in cells; host or cells: A431 cells
Experimental: When EGFR is activated by binding of a ligand, intracellular regions are phosphorylated. This phosphorylation is detectable using a phosphorylated receptor-specific antibody. A431 cells were cultured (BNR-110M, ESPEC CORP.) using Dulbecco's Modified Eagle's Medium (Sigma) containing 10% fetal calf serum (JRH Bioscience) under an environment of 5% CO2 at 37° C. for 1 day. The cells were then cultured in a serum-free medium for 1 day. When agonist activity was assayed, a medium containing a sample at a concentration of 10 μg/mL was added, and then the resultant was allowed to stand for 10 minutes. Furthermore, when antagonist activity was assayed, a medium containing a sample at a concentration of 10 μg/mL or 100 μg/mL was added, and then the resultant was allowed to stand for 20 minutes. […] The media were removed, the cells were washed with cooled phosphate buffered saline (PBS, Sigma), and then a heated cell lysis buffer (125 mmol/L Tris (Wako Pure Chemical Industries, Ltd.)-hydrochloric acid (Wako Pure Chemical Industries, Ltd.) buffer (pH 6.8) containing 20% glycerol (Wako Pure Chemical Industries, Ltd.), 2% SDS (Sigma), 5% 2-Mercaptoethanol (Sigma), and 0.025 mg/mL Bromo Phenol Blue (Sigma)) was added, thereby obtaining a cell lysate solution. The obtained cell lysate was applied to 7.5% polyacrylamide gel (e-PAGEL, ATTO Corporation), and then subjected to separation by electrophoresis (AE-6400, ATTO Corporation) under a condition of 30 mA per sheet of gel using Tris/glycine/SDS buffer (Bio-Rad Laboratories, Inc.). The resultant was transferred to a polyvinylidene difluoride (PVDF) membrane (clear blot membrane-P, ATTO Corporation) under conditions of 200 mA for 1 hour using semi-dry blotting system (AE-6675, ATTO Corporation). The PVDF membrane was blocked using PBS containing 5% skim milk (Wako Pure Chemical Industries, Ltd.) at room temperature for 1 hour.

T1 sequence (P00533 25-1210): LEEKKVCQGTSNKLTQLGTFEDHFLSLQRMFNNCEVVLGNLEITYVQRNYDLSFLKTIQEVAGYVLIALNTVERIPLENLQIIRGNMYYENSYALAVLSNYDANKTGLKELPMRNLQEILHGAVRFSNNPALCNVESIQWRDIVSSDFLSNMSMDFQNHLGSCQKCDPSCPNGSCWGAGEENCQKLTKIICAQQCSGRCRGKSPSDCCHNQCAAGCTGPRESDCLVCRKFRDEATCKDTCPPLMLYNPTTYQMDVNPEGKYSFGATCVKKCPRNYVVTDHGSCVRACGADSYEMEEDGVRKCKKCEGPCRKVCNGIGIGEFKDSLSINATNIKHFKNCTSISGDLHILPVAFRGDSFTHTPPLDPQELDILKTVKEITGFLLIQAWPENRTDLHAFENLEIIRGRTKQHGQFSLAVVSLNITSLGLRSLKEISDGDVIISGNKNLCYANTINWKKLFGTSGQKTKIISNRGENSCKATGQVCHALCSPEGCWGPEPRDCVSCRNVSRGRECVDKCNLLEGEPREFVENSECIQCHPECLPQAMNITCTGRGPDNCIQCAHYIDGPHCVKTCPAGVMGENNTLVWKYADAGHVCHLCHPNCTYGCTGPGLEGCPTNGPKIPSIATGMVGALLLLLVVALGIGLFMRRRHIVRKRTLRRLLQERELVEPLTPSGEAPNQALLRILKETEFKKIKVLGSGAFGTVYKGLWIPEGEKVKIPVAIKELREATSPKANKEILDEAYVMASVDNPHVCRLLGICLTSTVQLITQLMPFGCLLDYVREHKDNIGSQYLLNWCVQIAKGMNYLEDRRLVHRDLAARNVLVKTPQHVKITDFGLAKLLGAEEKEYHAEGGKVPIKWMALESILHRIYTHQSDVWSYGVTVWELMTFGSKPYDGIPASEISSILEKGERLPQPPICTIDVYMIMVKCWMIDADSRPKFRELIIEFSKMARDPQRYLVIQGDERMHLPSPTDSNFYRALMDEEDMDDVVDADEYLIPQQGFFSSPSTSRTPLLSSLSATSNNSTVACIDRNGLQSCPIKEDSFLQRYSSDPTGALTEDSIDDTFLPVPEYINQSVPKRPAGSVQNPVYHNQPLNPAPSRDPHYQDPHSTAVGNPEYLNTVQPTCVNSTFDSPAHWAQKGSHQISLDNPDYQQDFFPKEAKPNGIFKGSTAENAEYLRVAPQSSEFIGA
T2 sequence (P00533 25-1210): as above

IC50 (EGFR (A431 cell)) [µM] | inhibition of activation of the EGF receptor due to EGF (EGFR phosphorylation) ([1]; sample 100 μg/mL) | inhibition of activation of the EGF receptor due to EGF (EGFR phosphorylation) ([1]; sample 10 μg/mL) | Compound
57.8 | inhibited activation of the EGF receptor | – | CCc1cc2c(cc1C(=O)CSc1ncccc1C(=O)O)C(C)(C)CCC2(C)C [2-[2-(3-ethyl-5,5,8,8-tetramethyl-5,6,7,8-tetrahydro-naphthalene-2-yl)-2-oxo-ethylsulfanyl]-nicotinic acid]
40.1 | – | inhibited activation of the EGF receptor | CCCCCCSc1nc2c(c(=O)[nH]c(=O)n2C)n1CCC [8-hexylsulfanyl-3-methyl-7-propyl-3,7-dihydro-purine-2,6-dione]
16.7 | – | inhibited activation of the EGF receptor | CN1CCN(CCCN2c3ccccc3Sc3ccc(C(F)(F)F)cc32)CC1.Cl.Cl [10-[3-(4-methyl-piperazine-1-yl)-propyl]-2-trifluoromethyl-10H-phenothiazine dihydrochloride]
